From article PMC11406360, “The enzymatic oxygen sensor cysteamine dioxygenase binds its protein substrates through their N-termini” (The Journal of Biological Chemistry, 2024)

Columns and labels:
[1] = molecular target: T1, ADO (Homo sapiens, UniProt Q96SZ5); assay: LC-MS enzyme activity assay (Nt-cys sulfinylation by ADO); assay type: biochemical; settings: 100 μM peptide, 0.1 μM ADO, 37 °C, 45 s and 1 h incubations
T1 construct: Full-length human ADO (UniProt ID: Q96SZ5) was cloned; made in house; host or cells: Rosetta2(DE3) Escherichia coli
T1 sequence (Q96SZ5 1-270): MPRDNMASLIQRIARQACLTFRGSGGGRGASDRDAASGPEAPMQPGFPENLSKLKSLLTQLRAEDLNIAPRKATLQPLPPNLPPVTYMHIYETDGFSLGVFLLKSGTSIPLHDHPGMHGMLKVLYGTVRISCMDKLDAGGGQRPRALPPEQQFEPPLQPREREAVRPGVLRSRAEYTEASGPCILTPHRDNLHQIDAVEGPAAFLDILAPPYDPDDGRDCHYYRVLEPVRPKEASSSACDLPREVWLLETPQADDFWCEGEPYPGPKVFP
Description: […] Otherwise stated, the reaction buffer contained 50 mM Tris pH 7.5, 50 mM NaCl, and 5 mM TCEP. The reactions were quenched by mixing the sample 1:10 (peptide) or 1:5 (protein) with 1% formic acid (v/v).
Peptide and protein samples were injected onto a Chromolith RP-18 Endcapped HPLC Columns (100–2 mm; Merck) and Discovery BIO Wide Pore C5 HPLC Column (Supelco), respectively, heated to 40 °C and eluted at 0.3 ml/min using a gradient of 95% deionized water supplemented with 0.1% (v/v) formic acid to 95% acetonitrile. Oxidation was monitored by an ultra high-performance liquid chromatography MS using ExionLC AD (Sciex) and SelexION (Sciex) mass spectrometer operated in a positive electrospray TOF (+ESI-TOF) mode. Instrument parameters, data acquisition and data processing were controlled by Analyst software (Sciex; https://sciex.com/products/software/analyst-software). The peptide data processing was performed using Skyline software (MacCoss Lab Software; https://skyline.ms/project/home/software/Skyline/begin.view) ([38]). All figures and parameters were generated using GraphPad Prism 9 (GraphPad; https://www.graphpad.com/features).

[2] = molecular target: T2, ADO-Co^2+ (Homo sapiens, UniProt Q96SZ5); assay: SPR binding (single cycle kinetics) to cobalt-substituted ADO; settings: 4 °C, significantly slower off-rate
T2 construct: Full-length human ADO (UniProt ID: Q96SZ5) was cloned; made in house; host or cells: Rosetta2(DE3) Escherichia coli, M9 minimal media with 0.2 mM Co2+ or Zn2+
T2 sequence (Q96SZ5 1-270): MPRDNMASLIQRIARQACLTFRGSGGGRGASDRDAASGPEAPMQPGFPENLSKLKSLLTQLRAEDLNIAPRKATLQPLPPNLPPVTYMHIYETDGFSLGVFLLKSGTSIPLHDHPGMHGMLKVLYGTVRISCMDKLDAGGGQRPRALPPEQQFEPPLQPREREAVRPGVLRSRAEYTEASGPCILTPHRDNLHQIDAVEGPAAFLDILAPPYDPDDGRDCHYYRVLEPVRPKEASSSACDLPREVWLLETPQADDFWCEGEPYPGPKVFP
Description: To study if different metals can compensate for the inherent iron cofactor, zinc (Zn^2+) and cobalt (Co^2+) substituted ADO was produced through minimal media expression, validated by ICP-MS, and analyzed for binding by SPR (Fig. 2E).
(§1) SPR measurements were made using a Biacore T200 (Cytiva) instrument and data were analyzed using the Biacore Insight Evaluation Software (Cytiva; https://www.cytivalifesciences.com/en/us/shop/protein-analysis/spr-label-free-analysis/spr-software-and-extensions/biacore-insight-evaluation-software-p-23528). Biotinylated-ADO was immobilized on a Biotin CAP chip (Cytiva) with a target density of ∼2500 to 3000 RU and peptide/protein substrates were injected over the chip. […] A buffer comprising 20 mM Hepes pH 7.5, 500 mM NaCl, 10 mM DTT, and 0.1% (v/v) tween-20 was used as the running buffer at a flow rate of 50 μl/min.

[3] = molecular target: T3, ADO (2-aminoethanethiol dioxygenase), iron-bound wild type (Homo sapiens, UniProt Q96SZ5); assay: SPR binding of peptide/protein substrates to immobilised ADO
T3 construct: Full-length human ADO (UniProt ID: Q96SZ5) was cloned; made in house; host or cells: Rosetta2(DE3) Escherichia coli
T3 sequence (Q96SZ5 1-270): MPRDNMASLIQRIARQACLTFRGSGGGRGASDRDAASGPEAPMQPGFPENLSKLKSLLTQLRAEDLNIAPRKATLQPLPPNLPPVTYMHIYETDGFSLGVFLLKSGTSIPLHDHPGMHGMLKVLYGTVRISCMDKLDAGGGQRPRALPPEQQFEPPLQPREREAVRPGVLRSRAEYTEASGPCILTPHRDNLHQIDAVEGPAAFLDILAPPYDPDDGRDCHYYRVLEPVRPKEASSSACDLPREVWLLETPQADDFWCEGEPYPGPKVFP
Excerpt: ADO catalyzes the O2-dependent sulfinylation of Nt-cys residues, which reportedly bind to the iron cofactor in a monodentate arrangement through ligation of the thiol group ([14], [15]). To test the importance of Nt-cys modifications and substitutions on ADO association, a SPR assay was established. […] Data collected under steady state conditions is presented in the main text and kinetic constants are provided in the Tables S1–S8 (alongside steady state measurements). All measurements were collected at 4 °C to minimize enzyme activity.
as §1
For metal-chelation experiments, a mixture of 10 mM 1, 10-phenanthroline and 100 mM EDTA (pH 8) was injected onto the chip using 10 × 60 s injections at a 100 μl/min flow rate. […] The instrument and chip were primed into buffer excluding reducing agents before conducting metal chelation and iron reconstitution.

[4] = molecular target: T4, ADO-H193D (Homo sapiens, UniProt Q96SZ5, H193D); assay: SPR binding to metal-deficient ADO-H193D mutant; settings: 4 °C
T4 construct: Full-length human ADO (UniProt ID: Q96SZ5) was cloned; made in house; host or cells: Rosetta2(DE3) Escherichia coli
T4 sequence (Q96SZ5 1-270 H193D): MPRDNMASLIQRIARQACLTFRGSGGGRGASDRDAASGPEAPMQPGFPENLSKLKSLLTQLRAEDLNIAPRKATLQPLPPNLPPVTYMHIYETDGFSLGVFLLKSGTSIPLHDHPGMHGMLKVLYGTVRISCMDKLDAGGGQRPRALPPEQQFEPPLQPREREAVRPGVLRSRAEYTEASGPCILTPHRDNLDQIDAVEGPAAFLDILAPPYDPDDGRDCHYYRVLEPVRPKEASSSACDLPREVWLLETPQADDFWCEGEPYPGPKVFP
Excerpt: To further validate the importance of metal coordination in protein substrate binding, an ADO-H193D mutant, which is known to impair iron retention, was generated (Fig. S1B). A significant reduction in metal occupancy was confirmed by ICP-MS (Fig. 2C). This correlated with a low SPR-binding response of approximately ∼2 to 3 RU, indicating a reduced population of substrate-binding ADO on the chip relative to the total amount of immobilized ADO (Figs. 2D and S5D). Furthermore, the calculated Kᴅ values with native RGS5 and IL32 peptides were ∼13-fold and ∼77-fold weaker, respectively, than the interactions with WT ADO (Table S3).
as §1

[5] = molecular target: 2-aminoethanethiol (cysteamine) dioxygenase (ADO), biotinylated, for SPR (human) (UniProt Q96SZ5); assay: SPR; Biacore T200; biotinylated ADO immobilized on a Biotin CAP chip (∼2500 to 3000 RU), peptide/protein substrates injected; 4 °C; 20 mM Hepes pH 7.5, 500 mM NaCl, 10 mM DTT, 0.1% tween-20; 50 μl/min; multicycle, equilibrium steady state affinity 1:1 binding model

Row | Substance | Oxidation (sulfinylation, +32 Da) by ADO [1] | Fold increase in binding affinity with ADO-Co^2+ relative to native ADO [2] [fold] | Kd ([3]; SPR steady state, 1:1 binding model, biotinylated ADO on Biotin CAP chip, 4 °C, 20 mM Hepes pH 7.5, 500 mM NaCl, 10 mM DTT, 0.1% tween-20, geometric mean (± SD) of minimum three independent measurements, read-out: Equilibrium dissociation constant KD) [nM] | Maximum response (Rmax) ([3]; SPR, ADO prior to chelation treatment) [RU] | Loss in Rmax following chelation of the immobilized ADO-bound metal ([3]; SPR, after 10 mM 1,10-phenanthroline and 100 mM EDTA) [%] | Fold weaker KD with ADO-H193D than with WT ADO [4] [fold] | Kd [5] [nM]
1 | H-CFPKVLSDDMKKLK-NH2 (C-terminus assumed) [IL32] | could be oxidized by ADO | ~10 | 270 ± 5 | ~20 | ~80 | ~77 | –
2 | RGS5 tripeptide (tri-RGS5) (from UniProt O15539 2-4) | – | – | – | – | – | – | 460
3 | RGS5 dipeptide (di-RGS5) (from UniProt O15539 2-3) | – | – | – | – | – | – | 1200
